This is an account of results in patent US20220331415A1, “IMMUNOACTIVE MICROPARTICLES AND USES THEREOF” (The Regents of the University of California, priority 2019, published 2022).

In one data set the target is TGF-β receptor. Particulars: TGF-β inhibitors; cited from earlier work.
The subject of data set [1] is Treg formation (Foxp3+ T cells). In words: Inhibition of Treg formation: Foxp3 expression in naïve T cells co-cultured with microparticles, flow cytometry. It counts as cell-based. Particulars: same concentration of TGF-β inhibitors, galunisertib compared with SB505124, after 4 days. From the text: FIG. 16 further describes TGF-β inhibitors galunisertib (LY2157299) and SB505124 (top). […] Naïve T cells were co-cultured with microparticles and flow cytometry is being used after 4 days to evaluate the intracellular Foxp3 expression.
Thus, in one embodiment, an inhibitor or blocker of TGF-β is included or incorporated into the microparticles of the invention. A TGF-β inhibitor (TGF-βi) such as a TGF-β receptor inhibitor may be used. Non-limiting examples include galinusertib (LY2157299) or SB505124. […] This TGFβ inhibitor used for further studies as described in FIGS. 16-20.
To efficiently stimulate the proliferation of cytotoxic T cells, the microparticles of the invention should suppress formation of regulatory T cells (Tregs) from CD4+ cells attracted to the microparticles. Sustained presence of TGF-β inhibitors can suppress Tregs formation. FIG. 15 and FIG. 16 depict two TGF-β inhibitors used here to show the suppression effect. […] Incorporation of β-cyclodextrin was used to increase the affinity and loading of Galunisertib to microparticles (FIG. 17). β-cyclodextrin was conjugated to Alginate or Alginate-Heparin polymers.
(In flow cytometry, cells or beads pass a laser one at a time.)

For data set [2] the following is noted: compared to IL-2, cited from earlier work.

For orientation: IC50 means the concentration that inhibits the measured activity by half. With `Cc1cccc(-c2[nH]c(C(C)(C)C)nc2-c2ccc3c(c2)OCO3)n1` [SB505124], at TGF-β receptor, the IC50 is 129 nM.
For the molecule `Cc1cccc(-c2nn3c(c2-c2ccnc4ccc(C(N)=O)cc24)CCC3)n1` [galunisertib], the IC50 on TGF-β receptor was 56 nM. The “Treg suppression (Foxp3 expression, number of Foxp3+ cells)” value in data set [1] is reported as “stronger Treg suppression”; in data set [1] (listed as Galunisertib), “higher degree of Tregs suppression”.

B1: IL-2 superkine: artificial variant of IL-2 containing mutations L80F/R81D/L85V/I86V/I92F (SEQ ID NO: 3) (protein)
chain: MGEFAPTSSSTKKTQLQLEHLLLDLQMILNGINNYKNPKLTRMLTFKFYMPKKATELKHLQCLEEELKPLEEVLNLAQSKNFHFDPRDVVSNINVFVLELKGSETTFMCEYADETATIVEFLNRWITFCQSIISTLTH
Consider B1, for which the “expansion of cytotoxic T cells” value in data set [2] is recorded as “superior expansion”. The toxicity entry in data set [2] (lower Treg expansion, reduced pulmonary edema) is “proportionally less toxicity”. The antitumor responses result in data set [2] (in vivo) is on record as “improved antitumor responses”.
